≈ marks a conversion by molar mass, not a printed value. Residues, ends and D or L forms follow the SMILES beside them. *: point of attachment. Piperidide = C1CCN(*)CC1; PhAc = O=C(Cc1ccccc1)*
Details: buffer; pH 7.4; 200.0 µM
Molecule COc1cccc2c(Cl)c(CC=C(Cl)Cl)c(C)nc12 has a solubility kinetic of less than 0.7 µg/mL.
For CCOc1ccc(C=NCC(O)c2ccccc2)cc1 (centres undefined), the solubility kinetic was 37 µg/mL (≈ 137 µM).
In the case of COc1cc(CNCc2ccco2)cc(OC)c1O.Cl, the solubility kinetic is reported as 41.4 µg/mL.
In the case of Cc1ccc2nc(Cn3cc(C(F)(F)F)ccc3=O)cc(=O)n2c1, the solubility kinetic is reported as 47.4 µg/mL (≈ 141 µM).
For CC(NCC(=O)Nc1ccccc1C(=O)NC1CC1)c1cccs1 (centres undefined), the solubility kinetic was greater than 51.5 µg/mL.
Molecule Cn1cc(CCCC(=O)NCc2ccccc2)c2ccccc21 has a solubility kinetic of 29.2 µg/mL (≈ 95.3 µM).
Molecule Cc1nc(NC(=O)C2CC2)sc1C(=O)Nc1ccccc1Cl has a solubility kinetic of 2.1 µg/mL (≈ 6.25 µM).
For CN(CC(=O)NCc1ccc(F)cc1)Cc1cccc(Cl)c1, the solubility kinetic was 38.7 µg/mL (≈ 121 µM).
With COc1ccc(NC(=O)c2cc(-c3ccccc3)on2)cc1 the solubility kinetic was less than 0.3 µg/mL.
With O=C(NCCN1CCOCC1)c1cc(-c2ccccc2Cl)on1 the solubility kinetic was greater than 50.4 µg/mL.
CCn1c(C)c(C(=O)O)c2cc(OC)c3ccccc3c21 showed a solubility kinetic of 16.8 µg/mL (≈ 59.3 µM).
Molecule CCOc1ccc(S(=O)(=O)N(C)CC(=O)NCc2ccccn2)cc1 has a solubility kinetic of 50.2 µg/mL (≈ 138 µM).
In the case of Cn1c(N)c(C(=O)CSc2nc(N)cc(N)n2)c(=O)n(C)c1=O, the solubility kinetic is reported as 3 µg/mL (≈ 8.89 µM).
O=C(CNC(=O)Cc1ccccc1)NCC(=O)N1CCCCC1 (PhAc-Gly-Gly-Piperidide) showed a solubility kinetic greater than 47.6 µg/mL.
Work on CCC(C)NC(=O)c1cc2c(=O)n(CC)c3ccccc3c2s1 (centres undefined) yielded a solubility kinetic of 2.3 µg/mL (≈ 7 µM).
Cc1cnc(C(=O)OCC(=O)c2cc(C)n(C)c2C)cn1 gave a solubility kinetic greater than 43.1 µg/mL.
With Cc1ccc(C(=O)N2CCC(C(=O)NC3CCCCCC3)CC2)cc1 the solubility kinetic was 48.1 µg/mL (≈ 140 µM).
O=C(CN1C(=O)S/C(=C\c2cc(Cl)c(O)c(Cl)c2)C1=O)Nc1ccccc1 showed a solubility kinetic of 3.6 µg/mL (≈ 8.51 µM).
In the case of CC(=O)c1cccc(NC(=O)CC2CCCC2)c1, the solubility kinetic is reported as greater than 36.8 µg/mL.
Work on COc1ccccc1NC(=O)Cc1ccsc1 yielded a solubility kinetic greater than 37.1 µg/mL.
With CCOC(=O)c1ccc(S(=O)(=O)N2CCN(C(=O)c3ccccn3)CC2)cc1 the solubility kinetic was greater than 60.5 µg/mL.
In the case of Cc1ccc(CNC(=O)COC(=O)c2cc(=O)[nH]c3ccccc23)cc1, the solubility kinetic is reported as 5.5 µg/mL (≈ 15.7 µM).
For CCc1cc2c(N[C@@H](Cc3ccccc3)C(=O)O)ncnc2s1, the solubility kinetic was greater than 49.1 µg/mL.
CCOC(=O)CCCC(=O)N1CCOCCOCCOCC1 showed a solubility kinetic greater than 47.6 µg/mL.
With COc1ccc(CNC(=O)c2ccc(Br)cc2)cc1 the solubility kinetic was 4.1 µg/mL (≈ 12.8 µM).
For Cc1ccc(S(=O)(=O)NCC(=O)Nc2cccc([N+](=O)[O-])c2)cc1, the solubility kinetic was 22.7 µg/mL (≈ 65 µM).
Cc1cc(C)n2nc(C(=O)OCC(=O)c3ccccc3)nc2n1 gave a solubility kinetic greater than 46.5 µg/mL.
CCCOc1ccc(/C=C/C(=O)NC2CCCCC2)cc1 gave a solubility kinetic of less than 0.6 µg/mL.
With O=c1oc2ccccc2c(Nc2ccccc2)c1CN1CCCCC1 the solubility kinetic was 44.1 µg/mL (≈ 132 µM).
COc1ccc(OC)c(C(=O)c2ccccn2)c1 showed a solubility kinetic greater than 36.5 µg/mL.
For COc1ccc(C2Nc3ccccc3C(=O)N2Cc2ccccc2)cc1OC (centres undefined), the solubility kinetic was less than 0.4 µg/mL.
Molecule COC(=O)c1c(NC(=O)C2=COCCO2)sc(C)c1C has a solubility kinetic of 0.7 µg/mL (≈ 2.35 µM).
With CC1CCCC(NC(=O)COC(=O)CCC(=O)c2ccc(F)cc2)C1C (centres undefined) the solubility kinetic was 11.5 µg/mL (≈ 31.6 µM).
COC(=O)c1cc(S(=O)(=O)N2CCCCCC2)cn1C showed a solubility kinetic of 38.8 µg/mL (≈ 129 µM).
O=C(Nc1ccccc1N1CCCCC1)c1ccc(OC(F)F)cc1 gave a solubility kinetic of 0.7 µg/mL (≈ 2.02 µM).
CC(C)(C)NC(=O)C(=O)NNC(=O)c1ccco1 gave a solubility kinetic greater than 38 µg/mL.
For COc1ccccc1CCNS(=O)(=O)c1cn(C)c(=O)n(C)c1=O, the solubility kinetic was greater than 53 µg/mL.
Work on CCOc1ccccc1Nc1nc(-c2cccnc2)cs1 yielded a solubility kinetic of 10.6 µg/mL (≈ 35.6 µM).
In the case of COc1ccc(NC(=O)c2ccccc2NC(=O)c2cccs2)cc1, the solubility kinetic is reported as less than 0.4 µg/mL.
CC1CCCCN1C(=O)CCn1c(=S)oc2ccccc21 (centres undefined) showed a solubility kinetic of 43.9 µg/mL (≈ 144 µM).
In the case of CC(C)(C)c1ccc(SCCc2cccnc2)cc1, the solubility kinetic is reported as less than 0.6 µg/mL.
Molecule COc1ccc(C(=O)NCC(=O)OCC(=O)NCc2ccc3c(c2)OCO3)cc1 has a solubility kinetic greater than 60.1 µg/mL.
Molecule CC(=O)NC(Cc1c[nH]c2ccccc12)C(=O)NCCc1ccccn1 (centres undefined) has a solubility kinetic greater than 52.6 µg/mL.
Molecule NC(Cc1c[nH]c2ccccc12)C(=O)NCc1ccco1 (centres undefined) has a solubility kinetic greater than 42.5 µg/mL.
In the case of O=C(O)CCN1C(=O)c2ccc(NC(=O)CCc3ccccc3)cc2C1=O, the solubility kinetic is reported as greater than 55 µg/mL.
CCN(CC)S(=O)(=O)c1ccc(-c2csc(C)n2)cc1 gave a solubility kinetic of 37.3 µg/mL (≈ 120 µM).
Work on O=C(/C=C/c1ccccc1)OCC(=O)N1CCCC1 yielded a solubility kinetic greater than 38.9 µg/mL.
For CCOc1ccc(C(=O)Nc2ccccc2OC(F)F)cc1, the solubility kinetic was 6.1 µg/mL (≈ 19.9 µM).
With O=C(COC(=O)CCC(=O)c1ccc(F)cc1)NCc1ccc(Cl)cc1 the solubility kinetic was 10.6 µg/mL (≈ 28.1 µM).
Molecule CCC1CCCCN1S(=O)(=O)c1ccc([N+](=O)[O-])cc1 (centres undefined) has a solubility kinetic of 34.3 µg/mL (≈ 115 µM).
CN(C(=O)COC(=O)c1ccccc1C(=O)c1ccccc1)c1ccccc1 gave a solubility kinetic of 42.7 µg/mL (≈ 114 µM).
COc1ccc(N2C(=S)NC3CS(=O)(=O)CC32)cc1 (centres undefined) showed a solubility kinetic greater than 44.8 µg/mL.
For COc1ccc(-c2nc(=S)c3c(n2Cc2cccnc2)CC(C)(C)OC3)cc1, the solubility kinetic was greater than 59 µg/mL.
For Cc1cccc(C)c1N1CCN(C(=O)N2CCOCC2)CC1, the solubility kinetic was greater than 45.5 µg/mL.
In the case of COc1ccccc1CCNC1CCCCCC1, the solubility kinetic is reported as greater than 37.1 µg/mL.
In the case of CN(Cc1ccccc1)C(=O)c1cccnc1, the solubility kinetic is reported as greater than 33.9 µg/mL.
Molecule CN(C(=O)COC(=O)c1ccc(Cl)c(S(=O)(=O)N2CCCCCC2)c1)C1CCS(=O)(=O)C1 (centres undefined) has a solubility kinetic greater than 76.1 µg/mL.
Molecule CC(=O)c1ccc(NC(=O)N2CCc3ccccc3C2)cc1 has a solubility kinetic of 34.3 µg/mL (≈ 117 µM).
COCCCNC(=S)N1CCC(C(=O)c2ccc(Cl)cc2)CC1 gave a solubility kinetic greater than 53.2 µg/mL.

— PubChem BioAssay AID1996
